For one series, the system named is Colo205. In words: Human colon cancer Colo205 subcutaneous model (Day 28 after treatment). Format: in vivo, nude mice. As for the experimental part: (§1) Tumor cells (i.e., MIA-PaCa-2, WiDr, H2122, colo205) were inoculated in nude mice's flank at 5×10^6 cells per mouse. The mice were grouped when the average volume of tumors reached about 100˜200 mm^3. “QW”=weekly dose. “Q3d”=dosed every third day. “BiW”=biweekly.
(§2) The bodyweight and major/minor axis of the mice were measured twice a week, and the tumor volumes were calculated using the formula: Tumor volume=1/2×major axis[…]. […] “T” represents average tumor volume of the experimental group (cm^3), and “C” represents average tumor volume of the control group (cm^3). The animals were monitored at all times. The bodyweight and major/minor axis or mice were measured twice a week.
(§3) Tumor volumes were represented with average±standard error. […] P<0.05 represents significant difference.

The test system of a further series is colon cancer, CS263, 1#. In words: Patients primary tumor tissue subcutaneous model (Day 35 after treatment). Format: in vivo, nude mice. The source says: (§4) Fresh primary tumor tissues from patients were implanted in NOD/SCID mice's flank, which developed into a primary tumor, which was then transferred to the nude mice's flank to allow the tumor reaching an exponential growth phase, and the tumor was named 1# tumor, and so on. When the tumor volume and number reached passage requirements, they were implanted into the right flank of nude mice. When the tumors' average volumes reached 100-200 mm^3, the mice were grouped.
(§5) The bodyweight and major/minor axis of mice were measured twice a week, and Tumor Growth Inhibition (TGI) and tumor volume were calculated same as in 5.1.5. In addition, to evaluate the synergetic effect of drug combination in tumor growth, Jin Zhengjun Q value judgment method was used with the follow formula: Q=Ea+b/(Ea+Eb−Ea×Eb). Ea+b is the inhibition ratio of drug combination, Ea and Eb are the inhibition ratio of each of drug treatment when it is administered alone. […] The animals were monitored, and when the experiments were concluded, mice were sacrificed and tumors were extracted and weighted. All the animal experiments confer to the regulations of animal's welfare and the management of experimental animal usage.
(§6) Tumor volumes were represented with average±standard error. Data analysis was done using Spss16.0, One-Way ANOVA, LSD (homogeneity of variance) or Dunnett T3 (non-homogeneity of variance). […] P<0.05 represents significant difference.

The next series has as its system colon cancer, CS182, 5#. In words: Patients primary tumor tissue subcutaneous model (Day 27 after treatment). Format: in vivo, nude mice. The following applies: Irinotecan 50 mg/kg i.v. BiW × 6 times.
From the text: as §4, §5, §6

The next series relates to WiDr. Description: Human colon cancer Widr subcutaneous model (Day 27 after treatment). It is filed as in vivo, nude mice. As for the experimental part: as §1, §2, §3
The subject of a further series is colon cancer, CS146, 2#. Description: Patients primary tumor tissue subcutaneous model (Day 30 after treatment). Format: in vivo, nude mice. The following applies: 5-Fu 50 mg/kg i.p. QW × 6w alone.
From the text: as §4, §5
Tumor volumes were represented with average±standard error. Data analysis was done using Spss16.0, One-Way ANOVA, LSD (homogeneity of variance) or Dunnett T3 (non-homogeneity of variance). […]

A further series relates to MIA-PaCa-2. Description: Human pancreatic cancer MIA-PaCa-2 subcutaneous model (34 days of treatment). The following applies: for Tumor regression: treatment groups.
In the next series the test system is lung cancer, CS225, 1#. Description: Patients primary tumor tissue subcutaneous model (Day 37 after treatment). Format: in vivo, nude mice. The following applies: cisplatin 5 mg/kg i.p. QW × 2w.
From the text: as §4, §5, §6

In a further series the test system is H2122. Description: Human lung cancer H2122 subcutaneous model (Day 38 after treatment). Conditions: for Tumor regression: treatment groups.
The target of series [1] is T1, DR4-His-EC (Lot: 090222-P, E coli.) (human, UniProt O00220 24-239, limits assumed).
T1 construct: it may mean extracellular or E. coli; also called TRAIL-R1; not shown: His tag
T1 sequence (looked up): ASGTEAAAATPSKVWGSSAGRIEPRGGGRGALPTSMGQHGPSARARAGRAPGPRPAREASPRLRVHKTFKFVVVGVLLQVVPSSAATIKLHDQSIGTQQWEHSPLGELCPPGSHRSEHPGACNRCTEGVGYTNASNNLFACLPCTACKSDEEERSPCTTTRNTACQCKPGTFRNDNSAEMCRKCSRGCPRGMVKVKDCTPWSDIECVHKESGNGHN
Description: CLEIA, antigen coated on microplate, HRP secondary antibody.

Series [2] addresses T2, DcR1-His (recombinant human TRAIL R3/TNFRSF10C, Novoprotein Science) (human, UniProt O14798 26-221, limits assumed).
T2 construct: Commercial protein; not shown: His tag
T2 sequence (looked up): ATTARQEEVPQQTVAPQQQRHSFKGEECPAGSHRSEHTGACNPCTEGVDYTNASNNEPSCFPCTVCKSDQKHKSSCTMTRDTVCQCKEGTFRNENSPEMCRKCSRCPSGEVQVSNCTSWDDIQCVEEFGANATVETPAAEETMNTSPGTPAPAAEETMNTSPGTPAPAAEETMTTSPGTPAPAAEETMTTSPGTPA
Described as above.

Series [3] has as its target T3, DcR2-His (recombinant human TRAIL R4/TNFRSF10D, Sino Biological) (human, UniProt Q9UBN6 56-211, limits assumed).
T3 construct: Commercial protein; not shown: His tag
T3 sequence (looked up): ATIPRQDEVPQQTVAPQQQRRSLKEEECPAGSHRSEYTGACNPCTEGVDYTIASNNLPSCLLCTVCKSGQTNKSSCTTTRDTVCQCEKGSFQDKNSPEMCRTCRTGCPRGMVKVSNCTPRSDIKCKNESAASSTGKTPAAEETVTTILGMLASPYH
Described as above.

In series [4] the target is T4, OPG-His (recombinant human osteroprotegerin/TNFRSF11B, Wuxi Pharmatech) (human, UniProt O00300 22-401, limits assumed).
T4 construct: Commercial protein; also called osteoprotegerin; not shown: His tag
T4 sequence (looked up): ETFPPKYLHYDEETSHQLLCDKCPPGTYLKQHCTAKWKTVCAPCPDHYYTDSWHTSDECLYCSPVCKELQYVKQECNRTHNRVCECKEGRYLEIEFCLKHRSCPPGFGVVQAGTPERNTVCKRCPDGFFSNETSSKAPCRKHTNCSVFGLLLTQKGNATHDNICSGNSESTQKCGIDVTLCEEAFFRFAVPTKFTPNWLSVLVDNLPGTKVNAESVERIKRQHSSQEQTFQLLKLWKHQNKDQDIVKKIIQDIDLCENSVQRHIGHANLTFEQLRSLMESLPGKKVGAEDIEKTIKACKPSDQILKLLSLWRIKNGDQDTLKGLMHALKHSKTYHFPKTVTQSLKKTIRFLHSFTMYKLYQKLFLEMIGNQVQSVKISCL
The series is described as above.

Where [5] appears, read: Irinotecan 50 mg/kg i.v. BiW × 6 times.
The mark [6] stands for this setting: repeated experiment, Irinotecan group.
Where [7] appears, read: Gemcitabine 60 mg/kg i.p. Q3d × 6W.
Where [8] appears, read: Gemcitabine 60 mg/kg i.p. Q3d × 6W, listed as gemcitabine.
The mark [9] stands for this setting: repeated experiment, gemcitabine group.
[10] abbreviates: repeated experiment, Taxol group.

Marks after values point to notes of the source that are not given here.

This is an account of results in patent US20180125993A1 (BEIJING COTIMES BIOTECH COMPANY LIMITED, priority 2014, published 2018).

Regarding `CCc1c2c(nc3ccc(OC(=O)N4CCC(N5CCCCC5)CC4)cc13)-c1cc3c(c(=O)n1C2)COC(=O)[C@]3(O)CC` [Irinotecan, reference compound], the “Tumor weight Mean ± SEM” value is listed as 0.11 ± 0.02 g in the series on Colo205 (setting [5]); 0.003 ± 0.002 g with colon cancer, CS263, 1# (setting [5]); 0.04 ± 0.00 g in the series on colon cancer, CS182, 5#; 0.26 ± 0.04 g in the series with WiDr (setting [5]). In addition, the Tumor regression entry in the series with Colo205 (first experiment, treatment groups) was “none was found”. The “TGI calculated using the tumor weights” value in the series with Colo205 (setting [6]) is on record as 93.76%. For the same molecule, the “TGI (Calculated using tumor weight)” value in the series on colon cancer, CS263, 1# (setting [5]) was 99.58%*; in the series with colon cancer, CS263, 1# (Irinotecan 50 mg/kg i.v. BiW × 6 times, listed as irinotecan), 99.58%; in the series on colon cancer, CS182, 5#, 93.46%*; in the series on colon cancer, CS182, 5# (listed as irinotecan), 93.46%; in the series with WiDr (setting [6]), 72.30%. The “Animals showing tumor regression” value with colon cancer, CS263, 1# (combination: Day 24 and Day 31, irinotecan: Day 35) was “one animal”.

For `O=c1[nH]cc(F)c(=O)[nH]1` [5-Fu, 5-fluorouracil, reference compound], in the series on colon cancer, CS146, 2#, the “TGI (calculated using the tumor volumes of Day 30)” value was 37.95%.

Regarding `Nc1ccn([C@@H]2O[C@H](CO)[C@@H](O)C2(F)F)c(=O)n1` [Gemcitabine, reference compound], in the series with MIA-PaCa-2 (setting [7]), the “TGI (Calculated using tumor volumes)” value is 52.60%**, the “TGI (Calculated using tumor weight)” value is given as 55.66%*, the “Time of tumor volume changed significantly” value is on record as 10 days after first treatment and the “Tumor Volume Mean ± SEM” value is on record as 1.60 ± 0.11 cm^3. In addition, the “Tumor weight Mean ± SEM” value in the series on MIA-PaCa-2 (setting [7]) amounted to 0.84 ± 0.07 g. Further, in the series with MIA-PaCa-2 (setting [8]), the “TGI (Calculated using tumor volumes)” value is 52.60% and the “TGI (Calculated using tumor weight)” value is on record as 55.66%. Besides, the Tumor regression entry in the series with MIA-PaCa-2 (first experiment) is on record as “not found in the chemotherapy group”. Also, the Tumor regression result in the series on MIA-PaCa-2 (repeated experiment) is on record as “not found in the chemotherapy group alone”. In addition, in the series on MIA-PaCa-2 (setting [9]), the “TGI calculated based on the tumor volume” value is reported as 34.33% and the “TGI calculated based on the tumor weight” value is 31.30%. In addition, in the series with MIA-PaCa-2 (treatment groups over the time), the Bodyweights of mice entry is on record as “decreased significantly by the third dosing”.

For the molecule `N.N.[Cl][Pt][Cl]` [Cisplatin, cisplatin, reference compound], in the series with lung cancer, CS225, 1#, the “T/C % (Calculated using tumor volumes)” value is listed as 72.14%, the “TGI (Calculated using tumor volumes)” value was 31.45%, the “TGI (Calculated using tumor weight)” value is reported as 32.66% and the “Time of tumor volume changed significantly” value amounted to 7. For the same molecule, in the series with lung cancer, CS225, 1#, the “Tumor Volume Mean ± SEM” value came to 0.73 ± 0.06 cm^3 and the “Tumor weight Mean ± SEM” value amounted to 0.48 ± 0.08 g. In addition, in the series with lung cancer, CS225, 1# (listed as cisplatin), the “TGI (Calculated using tumor volumes)” value is given as 31.45% and the “TGI (Calculated using tumor weight)” value was 32.66%.

With `CC(=O)O[C@H]1C(=O)[C@@]2(C)[C@H]([C@H](OC(=O)c3ccccc3)[C@]3(O)C[C@H](OC(=O)[C@H](O)[C@@H](NC(=O)c4ccccc4)c4ccccc4)C(C)=C1C3(C)C)[C@]1(OC(C)=O)CO[C@@H]1C[C@@H]2O` [Taxol, reference compound], in the series on H2122 (Taxol 24 mg/kg i.p. Q6d × 6W), the “T/C % (Calculated using tumor volumes)” value is 55.33%, the “TGI (Calculated using tumor weight)” value was 47.18%, the “Time of tumor volume changed significantly” value is 11 and the “Tumor Volume Mean ± SEM” value is reported as 1.08 ± 0.12 cm^3. Also, in the series on H2122 (Taxol 24 mg/kg i.p. Q6d × 6W), the “Tumor weight Mean ± SEM” value is recorded as 0.87 ± 0.12 g. In addition, the Bodyweights entry in the series with H2122 (Taxol group, HuCTB006 0.2 mg/kg group) is “decreased, but were maintained at an acceptable level”. Further, the Tumor regression entry in the series with H2122 (first experiment) is given as “none was observed”. In addition, the Tumor regression result in the series with H2122 (repeated experiment) is “none was observed”. For the same molecule, in the series on H2122 (setting [10]), the “TGI (Calculated using tumor volume)” value is listed as 54.28% and the “TGI (Calculated using tumor weight)” value was 50.44%.

B1: HuCTB006, human chimeric anti-TRAIL-R2 (DR5) monoclonal antibody (antibody, human IgG1, V domains shown)
VH: EVQLQQSGPELVKPGASVRMSCKASGYTFTSYFIHWVKQRPGQGLEWIGWIYPGNVNTKYSEKFKGKATLTADKSSSTAYMQFSSLTSEDSAVYFCARGEAGYFDYWGQGTTLTVSS
VL: DIVMTQSHKFMSTSVGDRVSITCKASQDVSTAVAWYQQKPGQSPRLLIYWASTRHTGVPDRFTGSGSGTDYTLTISSVQAEDQALYYCQQHYRTPWTFGGGTKLEIKR
notes: also called human CTB006
Regarding B1, the binding result in series [1] is “no binding (tested: 200, 40 and 8 ng/mL)”; in series [2], “no binding (tested: 200, 40 and 8 ng/mL)”; in series [3] it was “no binding (tested: 200, 40 and 8 ng/mL)”; in [4], “no binding (tested: 200, 40 and 8 ng/mL)”.
